Laboratory results published in ChEMBL document CHEMBL4261650, “Identification of Cyanamide-Based Janus Kinase 3 (JAK3) Covalent Inhibitors” (J Med Chem, 2018).

Assays:
[1] = GSH reactivity in phosphate buffer assessed as half life at 20 uM after 1 hr in presence of L-glutathione by LC-MS/MS analysis; format: physicochemical; conditions: phosphate buffer with L-glutathione
[2] = Half life in rat whole blood; format: ADME, tissue-based
[3] = Half life in human whole blood; format: ADME, tissue-based
[4] = Apparent permeability across apical to basolateral side in RRCK cells after […] by HPLC analysis; format: ADME, cell-based, Canis lupus familiaris, MDCKII-LE; conditions: dog, MDCK
[5] = Covalent reactivity with N-alpha-acetyl-L-lysine assessed as half life; format: physicochemical; conditions: N-alpha-acetyl-L-lysine solution
[6] = Drug level in human liver microsomes treated with 10 uM N-(6-(7H-Pyrrolo[2,3-d]pyrimidin-4-yl)-2,3-dihydro-1H-inden-1-yl)cyanamide (11), (S)-N-(6-(7H-Pyrrolo[2,3-d]pyrimidin-4-yl)-2,3-dihydro-1H-inden-1-yl)cyanamide assessed as compound formation at 10 uM in presence of GSH and NADPH after 15 to 45 mins by LC-MS/MS analysis; format: ADME, microsome
[7] = Clearance in rat at 1 mg/kg, iv administered as single dose by LC-MS/MS analysis; format: ADME, organism-based; conditions: in vivo
[8] = AUC in rat at 1 mg/kg, iv administered as single dose by LC-MS/MS analysis; format: ADME, organism-based; conditions: in vivo
[9] = AUC in rat at 3 mg/kg, po administered as single dose by LC-MS/MS analysis; format: ADME, organism-based; conditions: in vivo
[10] = AUC in rat at 1 mg/kg, iv co-administered with CYP450 inhibitor ABT by LC-MS/MS analysis; format: ADME, organism-based; conditions: in vivo
[11] = Half life in rat at 1 mg/kg, iv administered as single dose by LC-MS/MS analysis; format: ADME, organism-based; conditions: in vivo
[12] = Half life in rat at 1 mg/kg, iv co-administered with CYP450 inhibitor ABT by LC-MS/MS analysis; format: ADME, organism-based; conditions: in vivo
[13] = Oral bioavailability in rat at 3 mg/kg administered as single dose by LC-MS/MS analysis; format: ADME, organism-based; conditions: in vivo
[14] = Clearance in rat at 1 mg/kg, iv co-administered with CYP450 inhibitor ABT by LC-MS/MS analysis; format: ADME, organism-based; conditions: in vivo
[15] = Volume of distribution at steady state in rat at 1 mg/kg, iv administered as single dose by LC-MS/MS analysis; format: ADME, organism-based; conditions: in vivo, read-out: Vdss
[16] = Volume of distribution at steady state in rat at 1 mg/kg, iv co-administered with CYP450 inhibitor ABT by LC-MS/MS analysis; format: ADME, organism-based; conditions: in vivo, read-out: Vdss
[17] = Drug metabolism in human liver microsomes assessed as 2-((R)-3-(N-((S)-6-(7H-pyrrolo[2,3-d]pyrimidin-4-yl)-2,3-dihydro-1H-inden-1-yl)carbamimidoylthio)-2-aminopropanamido)acetic acid metabolite formation at 10 uM in presence of GSH and NADPH after 15 to 45 mins by LC-MS/MS analysis; format: ADME, microsome
[18] = Drug metabolism in human liver microsomes assessed as (S)-1-(6-(7H-pyrrolo[2,3-d]pyrimidin-4-yl)-2,3-dihydro-1H-inden-1-yl)urea metabolite formation at 10 uM in presence of GSH and NADPH after 15 to 45 mins by LC-MS/MS analysis; format: ADME, microsome
[19] = Drug metabolism in human liver microsomes assessed as (S)-4-amino-6-(3-cyanamido-2,3-dihydro-1H-inden-5-yl)pyrimidine-5-carboxylic acid metabolite formation at 10 uM in presence of GSH and NADPH after 15 to 45 mins by LC-MS/MS analysis; format: ADME, microsome
[20] = Apparent intrinsic clearance in rat liver microsomes; format: ADME, microsome; conditions: read-out: CLH(app)
[21] = Apparent intrinsic clearance in human liver microsomes; format: ADME, microsome; conditions: read-out: CLH(app)

**Q.** With `COCCc1c[nH]c2ncnc(-c3ccc4c(c3)N(C#N)CCO4)c12` as the compound, how does the half-life at 20 µM [1] read?
**A.** > 3.17 h

**Q.** For `CS(=O)(=O)N[C@@H]1C[C@H](NC#N)c2cc(-c3ncnc4[nH]ccc34)ccc21`, which half-life at 20 µM [1] is on record?
**A.** 0.383 h

**Q.** And the half-life [2]?
**A.** 0.517 h

**Q.** And the half-life [3]?
**A.** 3.47 h

**Q.** What about the Papp A→B at […] [4] of the same compound?
**A.** < 1 ×10⁻⁶ cm/s

**Q.** Which half-life [5] does the source give for `C1CNC1` [AZETIDINE] here?
**A.** 2.59 h

**Q.** With `COCCc1c[nH]c2ncnc(-c3ccc4c(c3)C(NC#N)CC4)c12` (stereo unspecified) as the compound, how does the half-life at 20 µM [1] read?
**A.** 1.23 h

**Q.** Which results are given for `COCCc1c[nH]c2ncnc(-c3ccc4c(c3)N(C#N)CC(F)(F)O4)c12`?
**A.** half-life at 20 µM [1]: > 2 h; Papp A→B at […] [4]: 14 ×10⁻⁶ cm/s

**Q.** For `N=C(N[C@H]1CCc2ccc(-c3ncnc4[nH]ccc34)cc21)SC[C@H](NC(=O)CC[C@H](N)C(=O)O)C(=O)NCC(=O)O`, which Drug metabolism [6] is on record?
**A.** Metabolite_Detected

**Q.** For `N#CN[C@H]1C[C@@H](O)c2ccc(-c3ncnc4[nH]ccc34)cc21`, which half-life at 20 µM [1] is on record?
**A.** 0.467 h

**Q.** What about the half-life [2] of the same compound?
**A.** 0.333 h

**Q.** And the half-life [3]?
**A.** 5.65 h

**Q.** What about the Papp A→B at […] [4] of the same compound?
**A.** 2 ×10⁻⁶ cm/s

**Q.** For `N#CNC1CCOc2ccc(-c3ncnc4[nH]ccc34)cc21` (stereo unspecified), which half-life at 20 µM [1] is on record?
**A.** 0.6 h

**Q.** Which half-life at 20 µM [1] does the source give for `CC1(NC#N)CCc2ccc(-c3ncnc4[nH]ccc34)cc21` (stereo unspecified) here?
**A.** > 2 h

**Q.** Which half-life at 20 µM [1] does the source give for `N#CNC1CCc2ccc(-c3ncnc4[nH]ccc34)cc21` (stereo unspecified) here?
**A.** 1.12 h

**Q.** With `C1CCNCC1` [PIPERIDINE] as the compound, how does the half-life [5] read?
**A.** 11.1 h

**Q.** What does the source list for `C=CC(=O)Nc1cccc(-c2ncnc3[nH]cc(CCOC)c23)c1`?
**A.** half-life at 20 µM [1]: 0.933 h; half-life [2]: 0.483 h; half-life [3]: 2.47 h; clearance [7]: 455 mL/min/kg; Papp A→B at […] [4]: 10 ×10⁻⁶ cm/s

**Q.** Which half-life at 20 µM [1] does the source give for `COCCS(=O)(=O)N[C@@H]1C[C@H](NC#N)c2cc(-c3ncnc4[nH]ccc34)ccc21` here?
**A.** 1.17 h

**Q.** With `N#CN[C@H]1CCOc2ccc(-c3ncnc4[nH]ccc34)cc21` as the compound, how does the half-life at 20 µM [1] read?
**A.** 0.683 h

**Q.** With `N#CN[C@H]1C[C@@H](NS(=O)(=O)c2cccc(C#N)c2)c2ccc(-c3ncnc4[nH]ccc34)cc21` as the compound, how does the half-life at 20 µM [1] read?
**A.** 0.4 h

**Q.** And the Papp A→B at […] [4]?
**A.** 6 ×10⁻⁶ cm/s

**Q.** What does the source list for `N#CN[C@H]1CCc2ccc(-c3ncnc4[nH]cc(-c5ccccc5)c34)cc21`?
**A.** half-life at 20 µM [1]: 1.57 h; half-life [2]: 1.02 h; half-life [3]: 1.02 h; Papp A→B at […] [4]: 2 ×10⁻⁶ cm/s

**Q.** Which Drug metabolism [6] does the source give for `NC(=O)N[C@H]1CCc2ccc(-c3ncnc4[nH]ccc34)cc21` here?
**A.** Metabolite_Detected

**Q.** For `N#CN[C@H]1C[C@H](O)c2ccc(-c3ncnc4[nH]ccc34)cc21`, which half-life at 20 µM [1] is on record?
**A.** 0.667 h

**Q.** With `COc1ccc(S(=O)(=O)N[C@@H]2C[C@H](NC#N)c3cc(-c4ncnc5[nH]ccc45)ccc32)cc1` as the compound, how does the half-life at 20 µM [1] read?
**A.** 0.583 h

**Q.** Which Drug metabolism [6] does the source give for `N#CN[C@H]1CCc2ccc(-c3ncnc(N)c3C(=O)O)cc21` here?
**A.** Metabolite_Detected

**Q.** With `C[C@@H]1Cc2ccc(-c3ncnc4[nH]ccc34)cc2[C@@H]1NC#N` as the compound, how does the half-life at 20 µM [1] read?
**A.** 1.58 h

**Q.** For `Cn1nccc1S(=O)(=O)N[C@@H]1C[C@H](NC#N)c2cc(-c3ncnc4[nH]ccc34)ccc21`, which half-life at 20 µM [1] is on record?
**A.** 0.367 h

**Q.** Which results are given for `N#CN[C@H]1CCc2ccc(-c3ncnc4[nH]ccc34)cc21`?
**A.** half-life at 20 µM [1]: 1.15 h; half-life [2]: 2.5 h; half-life [3]: > 6 h; AUC [8]: 466 ng·h/mL; AUC [9]: 240 ng·h/mL; AUC [10]: 488 ng·h/mL; half-life [11]: 0.27 h; half-life [12]: 0.75 h; bioavailability [13]: 16%; clearance [7]: 36 mL/min/kg; clearance [14]: 34 mL/min/kg; Vd [15]: 0.35 L/kg; Vd [16]: 0.63 L/kg; Papp A→B at […] [4]: 11 ×10⁻⁶ cm/s; Drug metabolism [17]: Metabolite_Detected; Drug metabolism [18]: Metabolite_Detected; Drug metabolism [19]: Metabolite_Detected; microsomal CLint [20]: 100 µL/min/mg; microsomal CLint [21]: 50 µL/min/mg

**Q.** For `C=CC(=O)N1CCOc2ccc(-c3ncnc4[nH]cc(CCOC)c34)cc21`, which half-life at 20 µM [1] is on record?
**A.** 0.05 h

**Q.** What about the half-life [2] of the same compound?
**A.** 0.0667 h

**Q.** What about the half-life [3] of the same compound?
**A.** 0.0833 h

**Q.** With `N#CN[C@H]1C[C@@H](NS(=O)(=O)c2cccc(F)c2)c2ccc(-c3ncnc4[nH]ccc34)cc21` as the compound, how does the half-life at 20 µM [1] read?
**A.** 1.33 h

**Q.** And the Papp A→B at […] [4]?
**A.** 10 ×10⁻⁶ cm/s

**Q.** Which Drug metabolism [6] does the source give for `N=C(N[C@H]1CCc2ccc(-c3ncnc4[nH]ccc34)cc21)SC[C@H](N)C(=O)NCC(=O)O` here?
**A.** Metabolite_Detected

**Q.** For `CN(C#N)C1CCc2ccc(-c3ncnc4[nH]ccc34)cc21` (stereo unspecified), which half-life at 20 µM [1] is on record?
**A.** > 3.17 h

**Q.** With `N#CN[C@H]1CCc2ccc(-c3ncnc4[nH]cc(-c5cccc(CO)c5)c34)cc21` as the compound, how does the half-life at 20 µM [1] read?
**A.** 1.15 h

**Q.** What about the half-life [2] of the same compound?
**A.** 0.983 h

**Q.** And the half-life [3]?
**A.** 0.8 h

**Q.** What about the Papp A→B at […] [4] of the same compound?
**A.** 4 ×10⁻⁶ cm/s

**Q.** With `COCCc1c[nH]c2ncnc(-c3ccc4c(c3)C(NC#N)CCO4)c12` (stereo unspecified) as the compound, how does the half-life at 20 µM [1] read?
**A.** 1.17 h

**Q.** For `N#CN[C@@H]1CCc2ccc(-c3ncnc4[nH]ccc34)cc21`, which half-life at 20 µM [1] is on record?
**A.** 1.35 h

**Q.** For `C[C@@]1(NC#N)CCc2ccc(-c3ncnc4[nH]ccc34)cc21`, which half-life at 20 µM [1] is on record?
**A.** > 2 h

**Q.** What does the source list for `C[C@]1(NC#N)CCc2ccc(-c3ncnc4[nH]ccc34)cc21`?
**A.** half-life at 20 µM [1]: > 2 h; half-life [2]: > 6 h; half-life [3]: > 6 h; Papp A→B at […] [4]: 19 ×10⁻⁶ cm/s

**Q.** With `C1CCNC1` [PYRROLIDINE] as the compound, how does the half-life [5] read?
**A.** 7.7 h

**Q.** Which half-life at 20 µM [1] does the source give for `N#CN[C@@H]1c2cc(-c3ncnc4[nH]ccc34)ccc2C[C@H]1O` here?
**A.** 0.783 h
